These are literature values, as cited in patent US6439069B1, “Method and apparatus for detecting subterranean termites” (priority 1999, dated 2002).

The test system of data set [1] is subterranean termites. The settings on record: for 20-30 years or more.
Data set [2] deals with foraging termites. The settings on record: food sources impregnated with 0.5% of the substance.

As for `ClC1=C(Cl)C2(Cl)C3C(Cl)C(Cl)CC3C1(Cl)C2(Cl)Cl` (stereo not drawn) [chlordane], the “control of subterranean termites” value in data set [1] was 100%.

Turning to `O.O.O.O.O=BOB1OB(OB=O)OB2OB([O-])OB([O-])OB(O1)O2.[Na+].[Na+]` [disodium octaborate tetrahydrate], the “palatability of impregnated food source” value in data set [2] is listed as “acceptably palatable”.

In the case of `ClC1=C(Cl)C2(Cl)C3C(Cl)C=CC3C1(Cl)C2(Cl)Cl` (stereo not drawn) [heptachlor], the “control of subterranean termites” value in data set [1] is 100%.
